Measured values: ChEMBL document CHEMBL1201862, “PubChem BioAssay data set” (2004)
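Briefly, cells in 96-well plates were exposed to five compound concentrations for 48 h, and endpoints were estimated by linear interpolation. The concentration for 50% growth inhibition is given as GI50.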 Calls of active or inactive are those of the source. Cut-off read from the data, not from the text of the source: active = GI50 up to about 1.1 µM and inactive = higher.

What was measured:
Experiment in all cases: inhibition of tumour cell growth, NCI panel, 48 h
[1] = tested on: 786-0
[2] = tested on: ACHN
[3] = tested on: BT-549
[4] = tested on: CCRF-CEM
[5] = tested on: COLO 205
[6] = tested on: DU-145
[7] = tested on: HL-60
[8] = tested on: MDA-MB-231
[9] = tested on: Malme-3M
[10] = tested on: NCI-H522
[11] = tested on: OVCAR-5
[12] = tested on: RPMI-8226
[13] = tested on: SF-295
[14] = tested on: SK-OV-3
[15] = tested on: SNB-75
[16] = tested on: SR
[17] = tested on: SW-620
[18] = tested on: T47D
[19] = tested on: U-251
[20] = tested on: M19-MEL

Row | Compound | GI50 [1] | GI50 [2] | GI50 [3] | GI50 [4] | GI50 [5] | GI50 [6] | GI50 [7] | GI50 [8] | GI50 [9] | GI50 [10] | GI50 [11] | GI50 [12] | GI50 [13] | GI50 [14] | GI50 [15] | GI50 [16] | GI50 [17] | GI50 [18] | GI50 [19] | GI50 [20]
1 | CCOC(=O)C(c1c[nH]c2ccccc12)(c1c[nH]c2ccccc12)c1c[nH]c2ccccc12 | 44.5 µM (inactive) | 37.1 µM (inactive) | 44.4 µM (inactive) | 17.2 µM (inactive) | 15.7 µM (inactive) | 39.8 µM (inactive) | 15.9 µM (inactive) | 36.8 µM (inactive) | 30.4 µM (inactive) | 27 µM (inactive) | 55 µM (inactive) | 11.7 µM (inactive) | 30.4 µM (inactive) | 30.1 µM (inactive) | 20.4 µM (inactive) | 23.6 µM (inactive) | 19.8 µM (inactive) | 16.2 µM (inactive) | 36.9 µM (inactive) | 
2 | Nc1nc2c(c(-c3ccc(F)cc3)n1)COC/C2=C\c1ccc(F)cc1 |  | 55.6 µM (inactive) | 43.5 µM (inactive) | 52.5 µM (inactive) | > 100 µM (inactive) | > 100 µM (inactive) | 39.1 µM (inactive) | > 100 µM (inactive) | 12.7 µM (inactive) | 10.8 µM (inactive) | > 100 µM (inactive) | 71.6 µM (inactive) | 35.5 µM (inactive) | > 100 µM (inactive) | 20.5 µM (inactive) | 17 µM (inactive) | > 100 µM (inactive) |  | 15.4 µM (inactive) | 
3 | CCn1nc(C)c2c1C(=O)NC(C)C(=O)N2 (stereo not drawn) |  | > 100 µM (inactive) | > 100 µM (inactive) |  | > 100 µM (inactive) | > 100 µM (inactive) |  |  |  | > 100 µM (inactive) | > 100 µM (inactive) |  | > 100 µM (inactive) | > 100 µM (inactive) | > 100 µM (inactive) |  | > 100 µM (inactive) |  | > 100 µM (inactive) | 
4 | C=C(Br)CNC(=O)CCC(=O)NCC(=C)Br | > 100 µM (inactive) | > 100 µM (inactive) |  | > 100 µM (inactive) | > 100 µM (inactive) | > 100 µM (inactive) | > 100 µM (inactive) | > 100 µM (inactive) | > 100 µM (inactive) | > 100 µM (inactive) | > 100 µM (inactive) | > 100 µM (inactive) | > 100 µM (inactive) | > 100 µM (inactive) | > 100 µM (inactive) | > 100 µM (inactive) | > 100 µM (inactive) | > 100 µM (inactive) | > 100 µM (inactive) | 
5 | CC1(O)C2(c3ccccc3)CCC[N+]1(C)CC2 (stereo not drawn) |  |  | > 100 µM (inactive) | > 100 µM (inactive) | > 100 µM (inactive) | > 100 µM (inactive) | > 100 µM (inactive) | > 100 µM (inactive) | > 100 µM (inactive) |  | > 100 µM (inactive) | > 100 µM (inactive) | > 100 µM (inactive) | > 100 µM (inactive) | > 100 µM (inactive) |  | > 100 µM (inactive) | > 100 µM (inactive) | > 100 µM (inactive) | 
6 | O=C(CSCC(=O)N/N=C/c1cccc(C(F)(F)F)c1)N/N=C/c1cccc(C(F)(F)F)c1 |  | > 100 µM (inactive) | > 100 µM (inactive) |  |  | > 100 µM (inactive) | > 100 µM (inactive) |  | > 100 µM (inactive) | > 100 µM (inactive) | > 100 µM (inactive) |  | > 100 µM (inactive) | > 100 µM (inactive) | > 100 µM (inactive) |  |  | > 100 µM (inactive) |  | 
7 | COc1cc(C2S/C(=C/c3ccccc3)C(=O)N2c2ccc(NC(C)=O)cc2)cc(OC)c1OC (stereo not drawn) |  | 22.7 µM (inactive) | 16.3 µM (inactive) | 0.319 µM (active) | 15.2 µM (inactive) |  |  | 14.2 µM (inactive) | 22 µM (inactive) | 10.1 µM (inactive) | 28 µM (inactive) |  | 36.6 µM (inactive) | 35.2 µM (inactive) | 3.3 µM (inactive) | 18.9 µM (inactive) |  | 11.6 µM (inactive) | 15.6 µM (inactive) | 
8 | O=S(=O)(O)c1cc(S(=O)(=O)O)c2cc(/N=N/c3ccc(/N=N/c4ccc(/C=C/c5ccc(/N=[N+](/[O-])c6ccc(/C=C/c7ccc(/N=N/c8ccc(/N=N/c9ccc%10cc(S(=O)(=O)O)cc(S(=O)(=O)O)c%10c9)cc8)cc7S(=O)(=O)O)c(S(=O)(=O)O)c6)cc5S(=O)(=O)O)c(S(=O)(=O)O)c4)cc3)ccc2c1 |  |  |  | > 100 µM (inactive) | 50.7 µM (inactive) |  | 54.1 µM (inactive) |  | > 62.8 µM (inactive) | > 55.8 µM (inactive) | > 79.3 µM (inactive) | 46.5 µM (inactive) | > 33 µM (inactive) | > 22.3 µM (inactive) | 35.8 µM (inactive) |  | > 10 µM (inactive) |  | > 55.8 µM (inactive) | > 25 µM (inactive)
